Tests used:
Type in all cases: cell-based, human
COLO205 = experiment: MTT growth inhibition assay, single agent; details: 24 hours exposure, read-out: Antiproliferative effects IC50s (MTT assay)
Method: (§1) All cell lines were obtained from the ATCC (Rockville, Md.). Cells were grown as monolayers in RPMI medium supplemented with 10% fetal calf serum (Invitrogen, Cergy-Pontoise, France), 2 mM glutamine, 100 units/ml penicillin and 100 μg/ml streptomycin. All cells were split twice a week using trypsin/EDTA (0.25% and 0.02%, respectively; Invitrogen, Cergy-Pontoise, France) and seeded at a concentration of 2.5×10^4 cells/ml. All cell lines were tested regularly for Mycoplasma contamination by PCR using a Stratagene kit (La Jolla, Calif.).
(§2) The MTT assay was carried out as described previously (Hansen M B, Nielsen S E, Berg K. Re-examination and further development of a precise and rapid dye method for measuring cell growth/cell kill. J Immunol Methods. 1989 May 12; 119(2):203-10). In brief, cells were seeded in 96-well tissue culture plates at a density of 2×10^3 cells/well. Cell viability was determined after a 120-hour incubation, by the calorimetric conversion of yellow, water-soluble tetrazolium MTT (3-[4,5-dimethylthiazol-2-yl]-2,5-diphenyltetrazolium bromide; Sigma, Saint-Quentin Fallavier, France), into purple, water-insoluble formazan. This reaction is catalyzed by mitochondrial dehydrogenases and is used to estimate the relative number of viable cells (Mosmann, T, Rapid calorimetric assay for cellular growth and survival: application to proliferation and cytotoxicity assays. J Immunol Methods. 1983 Dec. 16; 65 (1-2):55-63). Cells were incubated with 0.4 mg/ml MTT for 4 hours at 37° C. After incubation, the supernatant was discarded, the cell pellet was resuspended in 0.1 ml of DMSO and the absorbance was measured at 560 nm using a microplate reader (Dynatech, Michigan). Wells with untreated cells or with drug-containing medium without cells were used as positive and negative controls, respectively. Growth inhibition curves were plotted as a percentage of untreated control cells.
(§3) The cells were seeded at 2×10^3 cells/well in 96-well plates and treated 24 hours later with increasing concentrations of CYC682. After incubation times of 1 hour, 24 hours or 48 hours, the cells were washed and post-incubated in drug-free medium for 72 hours. Growth inhibition was then determined by the MTT assay.

HCT116 = experiment: MTT growth inhibition assay, single agent; details: 24 hours exposure, read-out: Antiproliferative effects IC50s (MTT assay)
Method: as §1, §2, §3

MDA-MB-435 = experiment: MTT growth inhibition assay, single agent; details: 24 hours exposure, read-out: Antiproliferative effects IC50s (MTT assay)
Method: as §1, §2, §3

HT29 = experiment: MTT growth inhibition assay, single agent; details: 24 hours exposure, read-out: Antiproliferative effects IC50s (MTT assay)
Method: as §1, §2, §3

IGROV1 = experiment: MTT growth inhibition assay, single agent; details: 24 hours exposure, read-out: Antiproliferative effects IC50s (MTT assay)
Method: as §1, §2, §3

HCC2998 = experiment: MTT growth inhibition assay, single agent; details: 24 hours exposure, read-out: Antiproliferative effects IC50s (MTT assay)
Method: as §1, §2, §3

OVCAR1 = experiment: MTT growth inhibition assay, single agent; details: 24 hours exposure, read-out: Antiproliferative effects IC50s (MTT assay)
Method: as §1, §2, §3

HOP62 = experiment: MTT growth inhibition assay, single agent; details: 24 hours exposure, read-out: Antiproliferative effects IC50s (MTT assay)
Method: as §1, §2, §3

HOP92 = experiment: MTT growth inhibition assay, single agent; details: 24 hours exposure, read-out: Antiproliferative effects IC50s (MTT assay)
Method: as §1, §2, §3

MCF7 = experiment: MTT growth inhibition assay, single agent; details: 24 hours exposure, read-out: Antiproliferative effects IC50s (MTT assay)
Method: as §1, §2, §3

NSCLC cell line H1299 = experiment: CNDAC combinations (alamar blue, Calcusyn Combination Index); details: for Combination Index at ED75, CNDAC pretreatment / Combination Index at ED90, CNDAC pretreatment / Combination Index at ED50, CNDAC pretreatment / Combination Index at ED50, Other (named agent) pretreatment / Combination Index at ED75, Other (named agent) pretreatment / Combination Index at ED90, Other (named agent) pretreatment / Combination Index at ED50, Concomitant / Combination Index at ED75, Concomitant / Combination Index at ED90, Concomitant: named agent in combination with CNDAC; for Combination Index at ED75, CNDAC pretreatment / Combination Index at ED90, CNDAC pretreatment / Combination Index at ED50, CNDAC pretreatment: CNDAC 24 h then other agent 72 h; for Combination Index at ED50, CNDAC pretreatment: C.I. <1 synergistic, 1 additive, >1 antagonistic; for Combination Index at ED50, Other (named agent) pretreatment / Combination Index at ED75, Other (named agent) pretreatment / Combination Index at ED90, Other (named agent) pretreatment: named agent 24 h then CNDAC 72 h; for Combination Index at ED50, Concomitant / Combination Index at ED75, Concomitant / Combination Index at ED90, Concomitant: simultaneous treatment 72 h
Method: Experiments in the NSCLC cell lines H1299 or RERF-LC-MA were performed in 96-well plates, with cells seeded at a density of 3,000/well, in DMEM containing 10% (v/v) FCS. Stock solutions of all drugs were made up in dimethylsulfoxide (DMSO), with the exception of gemcitabine, which was dissolved in 0.9% (w/v) sterile saline solution.
For experimental assessment of potential synergistic interactions, the concomitant treatment regime involved simultaneous treatment of cells with CNDAC and the other agent under investigation for 72 h, alongside suitable controls of cells treated with the individual compounds alone for 72 hr. In the sequential treatment regimes, one drug was added to the cells 2 h after plating, and left for 24 h. Media was then aspirated, replaced with fresh media containing the second drug and incubated for 72 h. The two individual treatment controls for the sequential treatment regime involved substituting one of the drug treatments with drug-free media. […] Drug interactions were analysed using the Calcusyn software package (BioSoft, Cambridge, U.K.) described below.

COLO205 cancer cell line = experiment: CYC682 drug-combination study (MTT, Chou and Talalay combination index, isobolograms); details: COLO205; CYC682 given prior to named agent
Method: (§4) For simultaneous drug exposure, cells were seeded at 2×10^3 cells/well in 96-well plates and treated 24 hours later with increasing concentrations of CYC682 alone or with various concentrations of another drug corresponding to the IC20, IC40 or IC60 values. After approximately four doubling times (120 hours), the growth inhibitory effect was measured by the MTT assay.
(§5) Cells were seeded at 2×10^3 cells/well in 96-well plates and allowed to grow for 24 hour. Cells were then exposed to various concentrations of the first drug for 1 hour/24 hours/48 hours, the drug was removed, the cells were washed and the second drug was added. After additional drug exposure, the second drug was removed, the cells were washed and incubated in drug-free medium for 72 hours. Growth inhibition was then determined by the MTT assay.
(§6) Effects of drug combinations were evaluated using the Chou and Talalay method which is based on the median-effect principle (Chou T C, Talalay P. Quantitative analysis of dose-effect relationships: the combined effects of multiple drugs or enzyme inhibitors. Adv Enzyme Regul. 1984; 22:27-55). […] On the basis of the slope of the curve for each drug in a combination, it can be determined whether the drugs have mutually nonexclusive effects (e.g., independent or interactive modes of action).
(§7) The combination index (CI) is then determined by the equation:
(§8) CI=[(C)1/(Cx)1]+[(C)2/(Cx)2]+[α(C)1(C)2/(Cx)1(Cx)2],
(§9) where (Cx)1 is the concentration of drug 1 required to produce an x percent effect of that drug alone, and (C)1, the concentration of drug 1 required to produce the same x percent effect in combination with (C)2. If the mode of action of the drugs is mutually exclusive or nonexclusive, then α is 0 or 1, respectively. CI values will be calculated with this equation using different values of fa (i.e., for different degrees of cell growth inhibition). CI values of <1 indicate synergy, the value of 1 indicates additive effects, and values >1 indicate antagonism. Data were analyzed on an IBM-PC computer using concentration-effect analysis for microcomputer software (Biosoft, Cambridge, UK). For statistical analysis and graphs we will use Instat and Prism software (GraphPad, San Diego, USA). The dose-effect relationships for the drugs tested, alone or in paired combinations, were subjected to median-effect plot analysis to determine their relative potency (IC50), shape (m), and conformity (r) in each selected cell line. As stated above, the IC50 and m values were respectively used to calculate synergism and antagonism on the basis of the CI equation. Results were expressed as the mean±standard deviation of at least 3 experiments performed in duplicate. In each experiment, cells were exposed to the paired combinations for 48 hours as described above. Means and standard deviations were compared using Student's t-test (two-sided p value).
(§10) The effect of sequential and simultaneous exposure (FIG. 2) to CYC682 with oxaliplatin, doxorubicin, docetaxel and gemcitabine was studied in two sensitive colon cancer cell lines—COLO205 and HCT116 using combination indices that represent an affected fraction for the concentration of drugs corresponding to IC50 as previously described by Chou and Talalay.

HCT116 cancer cell line = experiment: as above; details: HCT116
Method: as §4, §5, §6, §7, §8, §9, §10

## N.N.[Cl][Pt][Cl] [Cisplatin, cis-diamminedichlorplatinum (II)]
COLO205
  IC50: 9.5 ± 2.5 µM
HCT116
  IC50: 9.2 ± 0.9 µM
MDA-MB-435
  IC50: 13 ± 2.6 µM
HT29
  IC50: 25 ± 3 µM
IGROV1
  IC50: 26 ± 6 µM
HCC2998
  IC50: 25 ± 5 µM
OVCAR1
  IC50: 12.1 ± 3.93 µM
HOP62
  IC50: 9.3 ± 0.9 µM
HOP92
  IC50: 4.4 ± 0.4 µM
MCF7
  IC50: 32 ± 2 µM
NSCLC cell line H1299; H1299, concomitant treatment
  Interaction with CNDAC at ED50 (in words): weak synergy
NSCLC cell line H1299; H1299, pre-treatment with named agent
  Interaction with CNDAC at ED50 (in words): synergy
NSCLC cell line H1299; combination with CNDAC, regime not specified
  Interaction with CNDAC (in words), summary of Table 3: synergistic drug interactions
NSCLC cell line H1299; H1299
  Combination Index at ED75, CNDAC pretreatment: 1.5
  Combination Index at ED90, CNDAC pretreatment: 13.68
  Combination Index at ED50, CNDAC pretreatment: 1.16
  Combination Index at ED50, Other (named agent) pretreatment: 0.65
  Combination Index at ED75, Other (named agent) pretreatment: 0.93
  Combination Index at ED90, Other (named agent) pretreatment: 1.96
  Combination Index at ED50, Concomitant: 0.77
  Combination Index at ED75, Concomitant: 1.65
  Combination Index at ED90, Concomitant: 7.56

## O=C(O)C(=O)O.[NH-][C@@H]1CCCC[C@H]1[NH-].[Pt+2] [Oxaliplatin]
COLO205 cancer cell line
  Interaction with CYC682 (isobologram): synergy
HCT116 cancer cell line; CYC682 given prior to named agent
  Interaction with CYC682 (isobologram): synergistic activity
HCT116 cancer cell line; named agent given prior to CYC682
  Interaction with CYC682 (isobologram): synergistic activity
COLO205
  IC50: 8 ± 1.6 µM
HCT116
  IC50: 20 ± 4 µM
MDA-MB-435
  IC50: 37 ± 21 µM
HT29
  IC50: 60 ± 12 µM
IGROV1
  IC50: 107 ± 21 µM
HCC2998
  IC50: 4 ± 1.4 µM
OVCAR1
  IC50: 50 ± 10 µM
HOP62
  IC50: 200 ± 40 µM
HOP92
  IC50: 1.4 ± 0.2 µM
MCF7
  IC50: 35 ± 7 µM

## CCC1=C[C@@H]2CN(C1)Cc1c([nH]c3ccccc13)[C@@](C(=O)OC)(c1cc3c(cc1OC)N(C)[C@H]1[C@@](O)(C(=O)OC)[C@H](OC(C)=O)[C@]4(CC)C=CCN5CC[C@]31[C@@H]54)C2 [Vinorelbine]
NSCLC cell line H1299; H1299, all three of the treatment regimes tested
  Interaction with CNDAC (in words): synergy
NSCLC cell line H1299; H1299
  Combination Index at ED75, CNDAC pretreatment: 0.67
  Combination Index at ED90, CNDAC pretreatment: 0.67
  Combination Index at ED50, CNDAC pretreatment: 1.04
  Combination Index at ED50, Other (named agent) pretreatment: 0.60
  Combination Index at ED75, Other (named agent) pretreatment: 0.56
  Combination Index at ED90, Other (named agent) pretreatment: 0.66
  Combination Index at ED50, Concomitant: 0.63
  Combination Index at ED75, Concomitant: 0.97
  Combination Index at ED90, Concomitant: 2.25

Source: patent US20090274773A1, “ANTIPROLIFERATIVE COMBINATION COMPRISING CYC-682 AND A CYTOTOXIC AGENT” (Cyclacel Limited, priority 2005, published 2009)
